Experimental data taken from patent US8846656B2, “Tetrahydropyrido-pyridine and tetrahydropyrido-pyrimidine compounds and use thereof as C5a receptor modulators” (Novartis AG, priority 2011, dated 2014).
Like-named read-outs stand apart in the source and are kept apart here.

What was measured:
[1] = target: human C5aR (Homo sapiens (Human), UniProt P21730); test: FLIPR assay: inhibition of C5a-mediated calcium mobilization; format: cell-based; details: stable cell line over expressing human C5aR & Gα15, human C5a at EC50 (0.1-0.25 nM)
Procedure, shortened: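 Compounds were added for 30 minutes at room temperature (1% DMSO) ahead of C5a stimulation. Before this, cells were dye-loaded for 1 h at 37° C: calcium 5 with 2.5 mM probenecid in HBSS, 20 mM HEPES, 0.1% BSA. Cells co-express human C5aR and Gα15; read-out is FLIPR Tetra calcium flux.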

[2] = tested on: CD11b; test: Human whole blood CD11b up-regulation assay; format: cell-based; details: 2 nM human C5a, CD15+ granulocytes, read-out: hCD11b IC50
Procedure, shortened: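 Flow cytometric read-out: CD11b median fluorescence intensity of CD15+ granulocytes, 10,000 events. Stimulus was 2 nM human C5a for 15 min at room temperature, following 10 min compound exposure in 1% DMSO in fresh sodium-heparin whole blood; staining done on ice and erythrocytes lysed.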

human C5aR, sequence (P21730 whole entry): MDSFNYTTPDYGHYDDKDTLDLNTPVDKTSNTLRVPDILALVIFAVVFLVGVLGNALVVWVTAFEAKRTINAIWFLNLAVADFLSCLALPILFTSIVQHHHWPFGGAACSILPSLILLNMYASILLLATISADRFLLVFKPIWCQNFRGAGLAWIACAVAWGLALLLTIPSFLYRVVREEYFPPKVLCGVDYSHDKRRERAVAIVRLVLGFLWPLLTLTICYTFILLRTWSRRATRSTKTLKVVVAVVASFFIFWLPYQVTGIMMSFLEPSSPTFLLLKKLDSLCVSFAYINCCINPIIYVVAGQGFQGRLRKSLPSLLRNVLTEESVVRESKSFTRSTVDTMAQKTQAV

IC50 [1] [µM] | IC50 ([2]; Homo sapiens) [µM] | IC50 [2] [µM] | SMILES
0.003 | 0.036 |  | CO[C@H]1CCN(c2nc(-c3c(C)ccc4[nH]nc(C)c34)nc3c2CN(c2c(Cl)c(C4CC4)nn2C)CC3)CC1(C)C [Example 55-L, (S)-6-(4-Chloro-3-cyclopropyl-1-methyl-1H-pyrazol-5-yl)-2-(3,5-dimethyl-1H-indazol-4-yl)-4-(4-methoxy-3,3-dimethylpiperidin-1-yl)-5,6,7,8-tetrahydropyrido[4,3-d]pyrimidine]
0.016 | 0.277 |  | CO[C@H]1CCN(c2nc(-c3cccc4[nH]cc(C)c34)nc3c2CN(c2cc(C(C)C)ccc2C)CC3)C[C@H]1C (racemic) [Example 17-AQ, racemic 6-(5-isopropyl-2-methylphenyl)-4-(4-methoxy-3-methylpiperidin-1-yl)-2-(3-methyl-1H-indol-4-yl)-5,6,7,8-tetrahydropyrido[4,3-d]pyrimidine]
0.079 | 0.238 |  | COC1CCN(c2nc(-c3c(C)cccc3C)nc3c2CN([C@@H](C)c2ccccc2)CC3)CC1(C)C (mixture of isomers) [Example 33-C, (±)-2-(2,6-Dimethylphenyl)-4-(4-methoxy-3,3-dimethylpiperidin-1-yl)-6-((S)-1-phenylethyl)-5,6,7,8-tetrahydropyrido[4,3-d]pyrimidine]
0.001 | 0.007 |  | CO[C@@H]1CCN(c2nc(-c3c(C)ccc4[nH]nc(C)c34)nc3c2CN(c2cc(C(C)C)ccc2C)CC3)[C@H](C)C1 [Example 21-Q, (+)-2-(3,5-dimethyl-1H-indazol-4-yl)-6-(5-isopropyl-2-methylphenyl)-4-((2R,4R)-4-methoxy-2-methylpiperidijn-1-yl)-5,6,7,8-tetrahydropyrido[4,3-d]pyrimidine]
0.009 | 0.018 |  | COc1nc(-c2c(C)ccc3[nH]nc(C)c23)nc2c1CN(c1cc(C(C)C)ccc1C)CC2 [Example 31-I, 2-(3,5-dimethyl-1H-indazol-4-yl)-6-(5-isopropyl-2-methylphenyl)-4-methoxy-5,6,7,8-tetrahydropyrido[4,3-d]pyrimidine]
0.02 | 1.99 |  | Cc1cc(-c2c(C(C)C)ccc3[nH]ncc23)nc2c1CN(c1cc(C3CC3)nn1C)CC2 [Example 46-A, 6-(3-Cyclopropyl-1-methyl-1H-pyrazol-5-yl)-2-(5-isopropyl-1H-indazol-4-yl)-4-methyl-5,6,7,8-tetrahydro-1,6-naphthyridine]
0.002 | 0.026 |  | Cc1ccc(C(C)C)cc1N1CCc2nc(-c3c(C)ccc4[nH]nc(C)c34)nc(N3CCOC[C@H]3C)c2C1 [Example 65-K, (R)-4-(2-(3,5-dimethyl-1H-indazol-4-yl)-6-(5-isopropyl-2-methylphenyl)-5,6,7,8-tetrahydropyrido[4,3-d]pyrimidin-4-yl)-3-methylmorpholine]
0.001 | 0.015 |  | CO[C@@H]1CCN(c2nc(-c3c(C)ccc4[nH]nc(C)c34)nc3c2CN(c2cc(C4(C)COC4)ccc2C)CC3)[C@H](C)C1 [Example 21-R, 2-(3,5-dimethyl-1H-indazol-4-yl)-4-((2R,4R)-4-methoxy-2-methylpiperidin-1-yl)-6-(2-methyl-5-(3-methyloxetan-3-yl)phenyl)-5,6,7,8-tetrahydropyrido[4,3-d]pyrimidine]
0.006 | 0.012 |  | CO[C@@H]1CCN(c2nc(-c3c(C)ccc4[nH]nc(C)c34)nc3c2CN(c2c(Cl)c(C(F)(F)F)nn2C)CC3)CC1(C)C [Example 55-N, (R)-6-(4-chloro-1-methyl-3-(trifluoromethyl)-1H-pyrazol-5-yl)-2-(3,5-dimethyl-1H-indazol-4-yl)-4-(4-methoxy-3,3-dimethylpiperidin-1-yl)-5,6,7,8-tetrahydropyrido[4,3-d]pyrimidine]
0.007 | 0.026 |  | CO[C@@H]1CCN(c2nc(-c3c(C)cccc3C)nc3c2CN(c2cc(Cl)ccc2C)CC3)[C@H](C)C1 [Example 21-P, 6-(5-chloro-2-methylphenyl)-2-(2,6-dimethylphenyl)-4-((2R,4R)-4-methoxy-2-methylpiperidin-1-yl)-5,6,7,8-tetrahydropyrido[4,3-d]pyrimidine]
0.001 | 0.006 |  | CO[C@@H]1CCN(c2nc(-c3c(C)ccc4[nH]nc(C)c34)nc3c2CN(c2cc(C(F)(F)F)ccc2C)CC3)[C@H](C)C1 [Example 21-AH, 2-(3,5-dimethyl-1H-indazol-4-yl)-4-((2R,4R)-4-methoxy-2-methylpiperidin-1-yl)-6-(2-methyl-5-(trifluoromethyl)phenyl)-5,6,7,8-tetrahydropyrido[4,3-d]pyrimidine]
0.004 | 0.028 |  | CO[C@H]1CCN(c2nc(-c3ccc(F)c4[nH]cc(C)c34)nc3c2CN(c2cc(C(C)C)ccc2C)CC3)CC1(C)C [Example 21-AF, (S)-2-(7-fluoro-3-methyl-1H-indol-4-yl)-6-(5-isopropyl-2-methylphenyl)-4-(4-methoxy-3,3-dimethylpiperidin-1-yl)-5,6,7,8-tetrahydropyrido[4,3-d]pyrimidine]
0.002 | 0.025 |  | CO[C@@H]1CCN(c2nc(-c3c(C)ccc4[nH]nc(C)c34)nc3c2CN(c2cc(C(C)C)nn2C)CC3)[C@H](C)C1 [Example 23-G, 2-(3,5-dimethyl-1H-indazol-4-yl)-6-(3-isopropyl-1-methyl-1H-pyrazol-5-yl)-4-((2R,4R)-4-methoxy-2-methylpiperidin-1-yl)-5,6,7,8-tetrahydropyrido[4,3-d]pyrimidine]
0.008 | 0.018 |  | CO[C@@H]1CCN(c2nc(-c3c(C)cccc3C)nc3c2CN(c2cc(C4CC4)nn2C)CC3)[C@H](C)C1 [Example 23-D, 6-(3-cyclopropyl-1-methyl-1H-pyrazol-5-yl)-2-(2,6-dimethylphenyl)-4-((2R,4R)-4-methoxy-2-methylpiperidin-1-yl)-5,6,7,8-tetrahydropyrido[4,3-d]pyrimidine]
0.009 | 0.045 |  | CO[C@H]1CCN(c2nc(-c3cccc4[nH]cc(C)c34)nc3c2CN(c2cc(C(C)C)ccc2C)CC3)C[C@@H]1C [Example 17-AY, 6-(5-isopropyl-2-methylphenyl)-4-((3S,4S)-4-methoxy-3-methylpiperidin-1-yl)-2-(3-methyl-1H-indol-4-yl)-5,6,7,8-tetrahydropyrido[4,3-d]pyrimidine]
0.003 | 0.07 |  | Cc1ccc(C(C)C)cc1N1CCc2nc(-c3c(C(C)C)ccc4[nH]ncc34)cc(C)c2C1 [Example 41-G, 2-(5-isopropyl-1H-indazol-4-yl)-6-(5-isopropyl-2-methylphenyl)-4-methyl-5,6,7,8-tetrahydro-1,6-naphthyridine]
0.002 | 0.017 |  | CCOC1CN(c2nc(-c3c(C)ccc4[nH]nc(C)c34)nc3c2CN(c2c(Cl)c(C4CC4)nn2C)CC3)C1 [Example 68-B, 6-(4-Chloro-3-cyclopropyl-1-methyl-1H-pyrazol-5-yl)-2-(3,5-dimethyl-1H-indazol-4-yl)-4-(3-ethoxyazetidin-1-yl)-5,6,7,8-tetrahydropyrido[4,3-d]pyrimidine]
0.003 |  | 0.107 | Cc1ccc(C(C)C)cc1N1CCc2nc(-c3c(C)cccc3C)nc(N3C[C@H](C)N(CC(N)=O)C[C@H]3C)c2C1 [Example 28-B]
